Measured values published in patent US10065990B2, “Cyclic peptide compound, and preparation method, pharmaceutical composition and use thereof” (HANGZHOU GUANYU BIO-MEDICAL CO., LTD, priority 2013, dated 2018).
Where two headings read alike, the source gives them in different places.

Legend:
[1] = target: T1, HDAC7 (Homo sapiens, UniProt Q8WUI4); experiment: HDAC biochemical activity measurement (fluorescent substrate deacetylation);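 also: fluorogenic deacetylation assay using acetyl-lysine substrate at 20 µM, enzyme and compound incubated 30 min at 37 °C, then developer added, fluorescence read at 360/460 nm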; conditions: HDAC7; 37° C. 30 minutes
T1 sequence (Q8WUI4 1-952): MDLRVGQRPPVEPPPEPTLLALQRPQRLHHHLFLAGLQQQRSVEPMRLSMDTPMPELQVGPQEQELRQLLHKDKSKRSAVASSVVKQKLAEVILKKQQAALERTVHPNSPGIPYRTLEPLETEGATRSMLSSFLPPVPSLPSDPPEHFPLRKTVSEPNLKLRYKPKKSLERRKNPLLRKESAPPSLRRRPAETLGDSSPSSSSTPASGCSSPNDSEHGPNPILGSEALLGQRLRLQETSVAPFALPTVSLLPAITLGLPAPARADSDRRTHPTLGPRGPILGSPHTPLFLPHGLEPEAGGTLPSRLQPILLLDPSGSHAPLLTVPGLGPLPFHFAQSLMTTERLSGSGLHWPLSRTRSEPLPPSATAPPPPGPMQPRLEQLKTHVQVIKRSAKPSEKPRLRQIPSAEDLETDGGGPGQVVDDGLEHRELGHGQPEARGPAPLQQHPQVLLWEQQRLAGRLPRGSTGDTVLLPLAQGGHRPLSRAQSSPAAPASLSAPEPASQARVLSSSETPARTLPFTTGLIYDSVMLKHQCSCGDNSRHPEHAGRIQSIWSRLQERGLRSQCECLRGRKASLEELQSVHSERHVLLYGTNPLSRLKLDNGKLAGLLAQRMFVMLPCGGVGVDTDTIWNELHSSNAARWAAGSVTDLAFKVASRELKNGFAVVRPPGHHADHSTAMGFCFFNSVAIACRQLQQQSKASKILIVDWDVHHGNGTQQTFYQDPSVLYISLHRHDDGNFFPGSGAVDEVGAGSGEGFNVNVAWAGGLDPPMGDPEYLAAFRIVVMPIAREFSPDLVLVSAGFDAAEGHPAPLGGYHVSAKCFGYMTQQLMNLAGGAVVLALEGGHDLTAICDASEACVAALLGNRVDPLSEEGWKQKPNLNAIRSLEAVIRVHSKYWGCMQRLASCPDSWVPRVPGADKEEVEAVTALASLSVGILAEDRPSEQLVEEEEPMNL

[2] = test system: lncap (prostate cancer cells); experiment: MTT cancer cell growth inhibition; format: cell-based; conditions: Homo sapiens, LNCaP, 72 h, MTT, 72 hours incubation, read-out: GI50 lnca
In short: (§1)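 Cells seeded at 1500/well in DMEM or RPMI 1640 with 10% FBS, incubated overnight, then exposed to compound at 10^−5 to 10^−10 M final in triplicate for 72 h at 37° C, 5% CO2. MTT added for 4 h, formazan dissolved in DMSO, absorbance read at 570 nm; GI50 derived from viability.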

[3] = test system: HT1080 (human fibrosarcoma cells); experiment: MTT cancer cell growth inhibition; format: cell-based; conditions: Homo sapiens, HT-1080, 72 h, MTT, 72 hours incubation, read-out: GI50 HT1
In short: as §1

[4] = test system: MDA-MB-231 (breast cancer cells); experiment: MTT cancer cell growth inhibition; format: cell-based; conditions: Homo sapiens, MDA-MB-231, 72 h, read-out: GI50 MDA-MB-231, MTT, 72 hours incubation, MDA-MB-231 cells
In short: as §1

[5] = test system: SGC-7901 (human gastric cancer cells); experiment: MTT cancer cell growth inhibition; format: cell-based; conditions: Homo sapiens, SGC-7901, 72 h, MTT, 72 hours incubation, SGC-7901 cells; read-out: GI50 SGC-7901
In short: as §1

[6] = test system: A549 (human lung cancer cells); experiment: MTT cancer cell growth inhibition; format: cell-based; conditions: Homo sapiens, A549, 72 h, MTT, 72 hours incubation, read-out: GI50 A54
In short: as §1

[7] = test system: PANC-1 (Pac-1, human pancreatic cancer cells); experiment: MTT cancer cell growth inhibition; format: cell-based; conditions: Homo sapiens, PANC-1, 72 h, MTT, 72 hours incubation, read-out: GI50 PAN
In short: as §1

[8] = test system: BGC-823 (human gastric cancer cells); experiment: MTT cancer cell growth inhibition; format: cell-based; conditions: Homo sapiens, BGC-823, 72 h, MTT, 72 hours incubation, read-out: GI50 BG
In short: as §1

[9] = test system: N-87 (human gastric cancer cells); experiment: MTT cancer cell growth inhibition; format: cell-based; conditions: Homo sapiens, 72 h, MTT, 72 hours incubation, N-87 cells; read-out: GI50 N-87
In short: as §1

[10] = test system: MCF-7 (human breast cancer cells); experiment: MTT cancer cell growth inhibition; format: cell-based; conditions: Homo sapiens, MCF7, 72 h, 72 hours incubation, read-out: GI50 MCF
In short: as §1

[11] = test system: H1975 (non-small cell lung adenocarcinoma); experiment: MTT cancer cell growth inhibition; format: cell-based; conditions: Homo sapiens, NCI-H1975, 72 h, MTT, 72 hours incubation, H1975 cells; read-out: GI50 H1975
In short: as §1

[12] = test system: MOLT-4 (human acute lymphoblastic leukemia cells); experiment: MTT cancer cell growth inhibition; format: cell-based; conditions: Homo sapiens, MOLT-4, 72 h, MTT, 72 hours incubation, read-out: GI50 Mol
In short: as §1

[13] = test system: HCC827 (human non-small cell lung cancer cells); experiment: MTT cancer cell growth inhibition; format: cell-based; conditions: Homo sapiens, HCC827, 72 h, MTT, 72 hours incubation, HCC827 cells; read-out: GI50 HCC827
In short: as §1

[14] = test system: KBM5-T315I (human chronic myelogenous leukemia); experiment: MTT cancer cell growth inhibition; format: cell-based; conditions: Homo sapiens, 72 h, MTT, 72 hours incubation, KBM5-T315I cells; read-out: GI50 KBM5-T315I
In short: as §1

[15] = test system: KBM-5 (human chronic myelogenous leukemia); experiment: MTT cancer cell growth inhibition; format: cell-based; conditions: Homo sapiens, KBM5, 72 h, MTT, 72 hours incubation, KBM-5 cells; read-out: GI50 KBM-5
In short: as §1

[16] = test system: K562 (human leukemia cells); experiment: MTT cancer cell growth inhibition; format: cell-based; conditions: Homo sapiens, K562, 72 h, MTT, 72 hours incubation, K562 cells; read-out: GI50 K562
In short: as §1

[17] = test system: Huh-7 (human hepatoma cells); experiment: MTT cancer cell growth inhibition; format: cell-based; conditions: Homo sapiens, Huh-7, 72 h, MTT, 72 hours incubation, Huh-7 cells; read-out: GI50 Huh-7
In short: as §1

[18] = test system: U937 (human leukemia cells); experiment: MTT cancer cell growth inhibition; format: cell-based; conditions: Homo sapiens, U-937, 72 h, MTT, 72 hours incubation, read-out: GI50 U93
In short: as §1

[19] = test system: Hela (human cervical cancer cells); experiment: MTT cancer cell growth inhibition; format: cell-based; conditions: Homo sapiens, HeLa, 72 h, MTT, 72 hours incubation, read-out: GI50 Hela
In short: as §1

[20] = test system: DU145 (human prostate cancer cells); experiment: MTT cancer cell growth inhibition; format: cell-based; conditions: Homo sapiens, DU-145, 72 h, MTT, 72 hours incubation, read-out: GI50 Du1
In short: as §1

[21] = test system: Bel-7402 (human hepatoma cells); experiment: MTT cancer cell growth inhibition; format: cell-based; conditions: Homo sapiens, Bel-7402, 72 h, MTT, 72 hours incubation, Bel-7402 cells; read-out: GI50 Bel-7402
In short: as §1

Row | Structure (SMILES) | IC50 HDAC7 [1] | GI50 [2] [µM] | GI50 [3] [µM] | GI50 [4] [µM] | GI50 [5] [µM] | GI50 [6] [µM] | GI50 [7] [µM] | GI50 [8] [µM] | GI50 [9] [µM] | GI50 [10] [µM] | GI50 [11] [µM] | GI50 [12] [µM] | GI50 [13] [µM] | GI50 [14] [µM] | GI50 [15] [µM] | GI50 [16] [µM] | GI50 [17] [µM] | GI50 [18] [µM] | GI50 [19] [µM] | GI50 [21] [µM] | further results
1 | C/C=C1\NC(=O)c2nccc(n2)CNC(=O)C[C@@H](/C=C/CCS)OC(=O)[C@H](C)NC1=O [Compound 144] | no activity | 0.05 | 0.07 | 0.037 | 0.041 | 0.07 | 0.07 | 0.07 | 0.029 | 0.06 | 0.038 | 0.07 | 0.012 | 0.127 | 0.011 | 0.011 | 0.023 | 0.07 | 0.05 | 0.035 | GI50 [20]: 0.06 µM
2 | C/C=C1\NC(=O)c2nc(ccc2SC)CNC(=O)C[C@@H](/C=C/CCSC(C)=O)OC(=O)[C@H](Cc2ccc(O)cc2)NC1=O [Compound 201] | no activity | – | – | 0.038 | 0.051 | – | – | – | 0.032 | – | 0.073 | – | 0.011 | 0.035 | 0.029 | 0.035 | 0.09 | – | – | 0.069 | GI50 ([2]; lncap cells): 0.07 µM; GI50 ([3]; HT1080 cells): 0.06 µM; GI50 ([6]; A549 cells): 0.03 µM; GI50 ([7]; PANC-1 cells): 0.06 µM; GI50 ([8]; BGC-823 cells): 0.05 µM; GI50 ([10]; MCF-7 cells): 0.04 µM; GI50 ([12]; MOLT-4 cells): 0.02 µM; GI50 ([18]; U937 cells): 0.04 µM; GI50 ([19]; Hela cells): 0.03 µM; GI50 ([20]; DU145 cells): 0.03 µM
3 | C=C1NC(=O)c2ccc(F)c(n2)CNC(=O)C[C@@H](/C=C/CCSC(C)=O)OC(=O)[C@H](C(C)C)NC1=O [Compound 86] | no activity | 0.03 | 0.08 | 0.037 | 0.028 | 0.02 | 0.08 | 0.03 | 0.037 | 0.03 | 0.039 | 0.03 | 0.082 | 0.034 | 0.061 | 0.038 | 0.037 | 0.03 | 0.06 | 0.082 | GI50 [20]: 0.03 µM
4 | C/C=C1\NC(=O)c2cccc(n2)CNC(=O)C[C@@H](/C=C/CCS)OC(=O)[C@H](Cc2ccc(O)cc2)NC1=O [Compound 127] | no activity | 0.08 | 0.08 | 0.037 | 0.036 | 0.05 | 0.05 | 0.05 | 0.046 | 0.07 | 0.036 | 0.08 | 0.038 | 0.028 | 0.053 | 0.028 | 0.071 | 0.05 | 0.08 | 0.037 | GI50 [20]: 0.07 µM

Now from value to compound, other results behind:

Row | IC50 HDAC7 [1] | GI50 [2] [µM] | GI50 [3] [µM] | GI50 [4] [µM] | GI50 [5] [µM] | GI50 [6] [µM] | GI50 [7] [µM] | GI50 [8] [µM] | GI50 [9] [µM] | GI50 [10] [µM] | GI50 [11] [µM] | GI50 [12] [µM] | GI50 [13] [µM] | GI50 [14] [µM] | GI50 [15] [µM] | GI50 [16] [µM] | GI50 [17] [µM] | GI50 [18] [µM] | GI50 [19] [µM] | GI50 [21] [µM] | Structure (SMILES) | further results
5 | no activity | – | – | 0.083 | 0.048 | – | – | – | 0.036 | – | 0.035 | – | 0.035 | 0.087 | 0.026 | 0.023 | 0.091 | – | – | 0.023 | C/C=C1\NC(=O)c2cc(SC)cc(n2)CNC(=O)C[C@@H](/C=C/CCS)OC(=O)[C@H](CC)NC1=O [Compound 230] | GI50 ([2]; lncap cells): 0.05 µM; GI50 ([3]; HT1080 cells): 0.02 µM; GI50 ([6]; A549 cells): 0.02 µM; GI50 ([7]; PANC-1 cells): 0.03 µM; GI50 ([8]; BGC-823 cells): 0.03 µM; GI50 ([10]; MCF-7 cells): 0.07 µM; GI50 ([12]; MOLT-4 cells): 0.03 µM; GI50 ([18]; U937 cells): 0.02 µM; GI50 ([19]; Hela cells): 0.02 µM; GI50 ([20]; DU145 cells): 0.05 µM
6 | no activity | 0.39 | 0.04 | 0.086 | 0.034 | 0.42 | 0.02 | 1.1 | 0.042 | 0.93 | 0.035 | 0.08 | 0.037 | 0.051 | 0.073 | 0.035 | 0.073 | 2.11 | 0.81 | 0.092 | C/C=C1\NC(=O)c2cccc(n2)CNC(=O)C[C@@H](/C=C/CCS)OC(=O)[C@H](CC)NC1=O [Example 28] | GI50 [20]: 0.43 µM
7 | no activity | 0.04 | 0.05 | 0.046 | 0.061 | 0.06 | 0.05 | 0.06 | 0.063 | 0.05 | 0.038 | 0.04 | 0.051 | 0.059 | 0.075 | 0.026 | 0.046 | 0.03 | 0.07 | 0.051 | C/C=C1\NC(=O)c2ccc(F)c(n2)CNC(=O)C[C@@H](/C=C/CCSC(=O)CCCCCC)OC(=O)[C@H](C(C)C)NC1=O [Example 35] | GI50 [20]: 0.02 µM
